# Values joined by “and” are separate entries in the source; they are usually repeats but may differ in a detail not shown here. Equal entries are not always repeated.
# Experiments:
# hCB1 receptor = hCB1 receptor (Homo sapiens, UniProt P21554); assay: AequoScreen hCB1 receptor assay (flash luminescence, recombinant CHO-K1 cells); conditions: for Emax: CHO-K1, read-out: Efficacy (% JWH-018 activity), Emax, Emax from dose-response curves, normalized to JWH-018 at 20 µg/mL; for Emax / Efficacy (% JWH-018 activity), Emax: triplicates; for EC50: EC50, 8 concentrations 20 µg/mL to 76 or 9.5 ng/mL, normalized to JWH-018 between runs; for Potency retained, % of the potency of the parent: hydroxyindole metabolites versus AM-2201 or JWH-018; for Efficacy (% JWH-018 activity), Emax: Emax from dose-response curves, normalized to JWH-018 at 20 µg/mL
# hCB1 receptor, sequence (P21554 whole entry): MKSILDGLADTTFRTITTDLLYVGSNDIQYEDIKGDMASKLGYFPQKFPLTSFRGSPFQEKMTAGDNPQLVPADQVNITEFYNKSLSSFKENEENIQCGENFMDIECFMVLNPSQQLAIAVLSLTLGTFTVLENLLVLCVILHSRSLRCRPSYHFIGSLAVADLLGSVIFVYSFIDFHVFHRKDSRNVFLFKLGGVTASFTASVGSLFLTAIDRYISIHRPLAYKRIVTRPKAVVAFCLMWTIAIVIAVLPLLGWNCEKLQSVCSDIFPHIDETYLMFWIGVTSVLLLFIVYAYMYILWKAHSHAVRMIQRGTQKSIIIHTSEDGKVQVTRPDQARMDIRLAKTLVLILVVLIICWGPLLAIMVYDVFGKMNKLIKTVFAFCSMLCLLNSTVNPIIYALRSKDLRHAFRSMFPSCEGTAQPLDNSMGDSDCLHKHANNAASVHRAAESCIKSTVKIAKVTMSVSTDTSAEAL
# CB1 receptor = conditions: cited from earlier work
# [1] = test system: serotonin receptor 5-HT2A; design: method as in PMID 27779402, PMID 33160102, PMID 21755008; conditions: cited from earlier work
Compound,Emax (hCB1 receptor) [%],EC50 (hCB1 receptor),further results
O=C(c1cccc2ccccc12)c1c(O)n(CCCCCF)c2ccccc12 [2-OH indole AM-2201],0.26,,
CCCCCn1c(O)c(C(=O)c2cccc3ccccc23)c2ccccc21 [2-OH indole JWH-018],-0.38,,
O=C(c1cccc2ccccc12)c1cn(CC(O)CCCF)c2ccccc12 (stereo not drawn) [2-OH pentyl AM-2201],95.1,375 nM,
CCCC(O)Cn1cc(C(=O)c2cccc3ccccc23)c2ccccc21 (stereo not drawn) [2-OH pentyl JWH-018],82,750 nM,
CCCC(O)Cn1nc(C(=O)c2cccc3ccccc23)c2ccccc21 (stereo not drawn) [2-OH pentyl THJ-018],93.6,1110 nM,
O=C(c1cccc2ccccc12)c1nn(CC(O)CCCF)c2ccccc12 (stereo not drawn) [2-OH-pentyl THJ-2201],87,403 nM,
O=C(c1cccc2ccccc12)c1cn(CCC(O)CCF)c2ccccc12 (stereo not drawn) [3-OH pentyl AM-2201],100,221 nM,
CCC(O)CCn1cc(C(=O)c2cccc3ccccc23)c2ccccc21 (stereo not drawn) [3-OH pentyl JWH-018],96,3510 nM,
CCC(O)CCn1nc(C(=O)c2cccc3ccccc23)c2ccccc21 (stereo not drawn) [3-OH pentyl THJ-018],99.8,202 nM,
O=C(c1cccc2ccccc12)c1nn(CCC(O)CCF)c2ccccc12 (stereo not drawn) [3-OH-pentyl THJ-2201],101,159 nM,
O=C(c1cccc2ccccc12)c1cn(CCCCCF)c2cccc(O)c12 [4-OH indole AM-2201],94.6,44 nM and 43.7 nM,"Potency retained, % of the potency of the parent (hCB1 receptor): 83%"
CCCCCn1cc(C(=O)c2cccc3ccccc23)c2c(O)cccc21 [4-OH indole JWH-018],89.8,83.6 nM,"Activity on the CB1 receptor in words (CB1 receptor): active; Potency retained, % of the potency of the parent (hCB1 receptor): 51%"
O=C(c1cccc2ccccc12)c1cn(CCCC(O)CF)c2ccccc12 (stereo not drawn) [4-OH pentyl AM-2201],97.1,63.6 nM,
CC(O)CCCn1cc(C(=O)c2cccc3ccccc23)c2ccccc21 (stereo not drawn) [4-OH pentyl JWH-018],105,288 nM,"hCB1 activity in other in vitro studies, in words (CB1 receptor): active metabolites"
CC(O)CCCn1nc(C(=O)c2cccc3ccccc23)c2ccccc21 (stereo not drawn) [4-OH pentyl THJ-018],98.5,175 nM,
O=C(c1cccc2ccccc12)c1nn(CCCC(O)CF)c2ccccc12 (stereo not drawn) [4-OH-pentyl THJ-2201],99.2,13.7 nM,Potency increase versus the parent SC (hCB1 receptor; metabolite more potent than parent): 2.2 ×

Compound,Emax (hCB1 receptor) [%],EC50 (hCB1 receptor),further results
O=C(c1cccc2ccccc12)c1cn(CCCCCF)c2ccc(O)cc12 [5-OH indole AM-2201],93.4,306 nM,"Potency retained, % of the potency of the parent (hCB1 receptor): over 12%"
CCCCCn1cc(C(=O)c2cccc3ccccc23)c2cc(O)ccc21 [5-OH indole JWH-018],88.9,1130 nM,"Activity on the CB1 receptor in words (CB1 receptor): active; Potency retained, % of the potency of the parent (hCB1 receptor): 4%"
O=C(c1cccc2ccccc12)c1cn(CCCCCO)c2ccccc12 [5-OH pentyl JWH-018],63.1,178 nM,"hCB1 activity in other in vitro studies, in words (CB1 receptor): active metabolites; hCB1 activity class in words (full agonist, partial agonist, inactive) (hCB1 receptor; less than 20% efficacy regarded as inactive): partial agonist"
O=C(c1cccc2ccccc12)c1nn(CCCCCO)c2ccccc12 [5-OH pentyl THJ-018],67.3,274 nM,
O=C(c1cccc2ccccc12)c1cn(CCCCCF)c2cc(O)ccc12 [6-OH indole AM-2201],94,122 nM,"Efficacy (% JWH-018 activity), Emax (hCB1 receptor): 94.04 % JWH-018 activity; Potency retained, % of the potency of the parent (hCB1 receptor): over 12%"
CCCCCn1cc(C(=O)c2cccc3ccccc23)c2ccc(O)cc21 [6-OH indole JWH-018],59,460 nM,"Activity on the CB1 receptor in words (CB1 receptor): active; hCB1 activity in other in vitro studies, in words (CB1 receptor): significantly less Emax than its 5-hydroxy isomer; Efficacy (% JWH-018 activity), Emax (hCB1 receptor): 59.31 % JWH-018 activity; Potency retained, % of the potency of the parent (hCB1 receptor): 4%"
O=C(c1cccc2ccccc12)c1cn(CCCCCF)c2c(O)cccc12 [7-OH indole AM-2201],110,282 nM,"Efficacy (% JWH-018 activity), Emax (hCB1 receptor): 109.80 % JWH-018 activity; Potency retained, % of the potency of the parent (hCB1 receptor): over 12%"
CCCCCn1cc(C(=O)c2cccc3ccccc23)c2cccc(O)c21 [7-OH indole JWH-018],< 20,,"Activity on the CB1 receptor in words (CB1 receptor): active; Efficacy (% JWH-018 activity), Emax (hCB1 receptor): 15.81 % JWH-018 activity"
"O=C(c1cccc2ccccc12)c1cn(CCCCCF)c2ccccc12 [AM-2201, [1-(5-fluoropentyl)-1H-indol-3-yl]-1-naphthalenyl-methanone, reference compound]",99.7,36 nM and 36.4 nM,
"CCCCCn1cc(C(=O)c2cccc3ccccc23)c2ccccc21 [JWH-018, 1-naphthalenyl(1-pentyl-1H-indol-3-yl)-methanone, reference compound]",102,42.4 nM,"hCB1 activity in other in vitro studies, in words (CB1 receptor): agonist at nanomolar concentrations"
O=C(O)CCCCn1cc(C(=O)c2cccc3ccccc23)c2ccccc21 [Pentanoic acid JWH-018],0.23,,"hCB1 activity in other in vitro studies, in words (CB1 receptor): inactive"
O=C(O)CCCCn1nc(C(=O)c2cccc3ccccc23)c2ccccc21 [Pentanoic acid THJ-018],11.7,,
"CCCCCn1nc(C(=O)c2cccc3ccccc23)c2ccccc21 [THJ-018, 1-naphthalenyl(1-pentyl-1H-indazol-3-yl)-methanone, reference compound]",96.4,48.8 nM,"Efficacy (% JWH-018 activity), Emax (hCB1 receptor): 96.34 % JWH-018 activity"
"O=C(c1cccc2ccccc12)c1nn(CCCCCF)c2ccccc12 [THJ-2201, [1-(5-fluoropentyl)-1H-indazol-3-yl]-1-naphthalenyl-methanone, reference compound]",92.8,30.7 nM and 30.6 nM,
"CCCCCn1cc(C(=O)O)c2ccccc21 [carboxylic acid PB-22, reference compound]",,,CB1 / hCB1 activity in words (CB1 receptor; in vivo rat model and in vitro): inactive; Activation of the serotonin receptor 5-HT2A in words [1]: activated
O=C(c1cccc2ccccc12)c1cn(CCCCCO[C@@H]2O[C@H](C(=O)O)[C@@H](O)[C@H](O)[C@H]2O)c2ccccc12 [reference compound],,,Activity on hCB1 in words (CB1 receptor): neutral antagonist
